Laboratory results from patent US12605397B2, “Deoxy-cytidine or uridine derivatives for use in cancer therapies” (HEMISPHERIAN AS, priority 2019, dated 2026).

Legend:
HCT-116 cells = experiment: Survival assay (MTT), HCT-116; assay type: cell-based, human; settings: Homo sapiens
Experimental: (§1) Cells were incubated with the drugs for 72 hours.

NCI-N87 cells = experiment: Survival assay (MTT), NCI-N87; assay type: cell-based, human; settings: Homo sapiens
Experimental: (§2) Cells were passed between 70 and 90% confluence.
as §1

A-498 cells = experiment: Survival assay (MTT), A-498; assay type: cell-based, human; settings: Homo sapiens
Experimental: as §2, §1

HL-60 cells = experiment: Survival assay (MTT), HL-60; assay type: cell-based, human; settings: Homo sapiens
Experimental: as §2, §1

G26 cells = experiment: Survival assay (MTT), G26; assay type: cell-based, human; settings: Homo sapiens, G26, Glioma, Grade IV, 72 hours
Experimental: as §2, §1

SF188 cells = experiment: Survival assay (MTT), SF188; assay type: cell-based, human; settings: Homo sapiens, SF-188, SF188, Glioma, Grade IV, 72 hours
Experimental: as §2, §1

HEK293FT cells = experiment: Survival assay (MTT), HEK293FT; assay type: cell-based; settings: Homo sapiens
Experimental: as §2, §1
(§3) The present inventors further investigated the extent to which these compounds kill normal human cells; low cytotoxicity against normal human cells is advantageous property for anti-cancer agents. The cytotoxicity of these compounds in various normal human cell lines was therefore investigated (Table 3). Cells were grown and the survival assay was performed as described above (Materials and Methods).

Arpe19 cells = experiment: Survival assay (MTT), Arpe19; assay type: cell-based, human; settings: Homo sapiens
Experimental: as §1, §3

HaCat cells = experiment: Survival assay (MTT), HaCat; assay type: cell-based, human; settings: Homo sapiens, Normal, Keratinocytes, 72 hours
Experimental: as §2, §1, §3

MRC5 cells = experiment: Survival assay (MTT), MRC5; assay type: cell-based, human; settings: Homo sapiens
Experimental: as §2, §1, §3

U87-MG = experiment: Glioblastoma Multiforme mouse xenograft model; assay type: in vivo, mice; settings: five doses; for tumour volume: over all time points
Experimental: Standard agent, Temozolomide, was provided by Oslo University Hospital in powder form and was formulated fresh prior to each dose by first adding appropriate volume of DMSO to pre-weighed compound, then adding appropriate volumes of Solutol (RTM) and PBS (5% DMSO/5% Solutol (RTM)/90% PBS). […] Standard agent, Temozolomide, was administered at a dose volume of 10 mL/kg.
The human brain malignant glioma cell line, U87-MG (ATCC HTB-14, epithelial glioblastoma), was obtained from American Type Culture Collection (ATCC). The cells were cultured in Minimum essential medium containing 5% fetal bovine serum (FBS) at 37° C., with 5% CO2 in an incubator.
Female (nu/nu) nude mice aged 6-7 weeks obtained from BioLasco Taiwan (under Charles River Laboratories Licensee) were used. The animals were housed in individually ventilated cages (IVC, 36 Mini Isolator system). The allocation for 5 animals was 27×20×14 in cm. All animals were maintained in a hygienic environment under controlled temperature (20-24° C.) and humidity (30%-70%) with 12-hour light/dark cycle.
Viable U87-MG (ATCC HTB-14) cells were subcutaneously (SC) implanted (5×10^6 cells/mouse in PBS at 0.2 mL/mouse) into the right flank of female nu/nu mice. When group mean tumor volumes reached approximately 129 mm^3 to 131 mm^3, tumor implanted mice were divided into four treatment groups, each group containing eight animals, and dose administrations were initiated (denoted as Day 1).
5-hydroxymethyl-2′-deoxycytidine, 5-formyl-2′-deoxycytidine at 2000 mg/kg and corresponding vehicle (5% DMSO/5% Solutol (RTM)/90% PBS) were administered intraperitoneally (IP) once every three days for a total of five administrations. Temozolomide at 40 mg/kg was administered orally (PO) once daily for five total administrations.
The tumor volume, body weight, mortality, and signs of overt toxicity were monitored and recorded twice weekly for 29 days. Tumor volume (mm^3) was estimated according to the ellipsoid formula as: length×(width)^2×0.5. Tumor growth inhibition (T/C) was calculated by the following formula:
[formula] • Cn: Tumor weight measured on Day n in the control group • Tn: Tumor weight measured on Day n in the treated group • % T/C value≤42% was considered significant antitumor activity (#). Percent tumor growth inhibition (TGI) was also calculated by the following formula:
[formula] • % TGI value≥58% was considered significant antitumor activity (#).
Two-way ANOVA (RTM) followed by Bonferroni test was also used to ascertain the statistically significant difference compared to the negative control group during study; Day 1 through to Day 29. Differences are considered significant at p<0.05 (*).
5-formyl-2′deoxycytidine and 5-hydroxymethyl-2′-deoxycytidine were evaluated in a Glioblastoma Multiforme mouse xenograft model as described above (Materials and Methods). U87-MG cells were injected subcutaneously into the flank of nude mice. Tumours were allowed to form as described above (Materials and Methods). After the tumours reached between 129 mm^3 and 131 mm^3 animals were divided into 4 groups—two treatment groups, a negative control group and a positive control group. The two treatment groups were 5-formyl-2′-deoxycytidine and 5-hydroxymethyl-2′-deoxycytidine. […]
The tumour volume (FIG. 1C), body weight (FIG. 1D), mortality, and signs of overt toxicity were monitored and recorded twice weekly for 29 days. […]

[1] = HCT-116, 72 h, HCT-116, Colon Carcinoma, 72 hours, MTT
[2] = HCT-116, HCT-116, Tables 6 and 7, unit inferred
[3] = NCI-N87, Gastric Carcinoma, 72 hours, MTT
[4] = NCI-N87, Tables 6 and 7, unit inferred
[5] = A498, 72 h, A-498, Kidney Carcinoma, 72 hours, MTT
[6] = A498, A-498, Tables 6 and 7, unit inferred
[7] = HL-60, Acute Promyelocytic Leukemia, 72 hours, MTT
[8] = HL-60, Tables 6 and 7, unit inferred
[9] = HEK293, Tables 6 and 7, unit inferred
[10] = ARPE-19, 72 h, Arpe19, Normal, Ectoderm, 72 hours, MTT
[11] = ARPE-19, ARPE19, Tables 6 and 7, unit inferred
[12] = MRC5, 72 h, MRC5, Normal, Lung, 72 hours, MTT
[13] = MRC5, MRC5, Tables 6 and 7, unit inferred
[14] = 2000 mg/kg IP every three days, end of study (Day 29)

SMILES	IC50 (HCT-116 cells; [1]) [µM]	IC50 (HCT-116 cells; [2]) [µM]	IC50 (NCI-N87 cells; [3]) [µM]	IC50 (NCI-N87 cells; [4]) [µM]	IC50 (A-498 cells; [5]) [µM]	IC50 (A-498 cells; [6]) [µM]	IC50 (HL-60 cells; [7]) [µM]	IC50 (HL-60 cells; [8]) [µM]	IC50 (G26 cells) [µM]	IC50 (SF188 cells) [µM]	IC50 (HEK293FT cells; 72 h, Normal, Kidney, MTT) [µM]	IC50 (HEK293FT cells; [9]) [µM]	IC50 (Arpe19 cells; [10]) [µM]	IC50 (Arpe19 cells; [11]) [µM]	IC50 (HaCat cells) [µM]	IC50 (MRC5 cells; [12]) [µM]	IC50 (MRC5 cells; [13]) [µM]	tumour growth inhibition (TGI) (U87-MG; [14]) [%]	tumour volume (U87-MG; 2000 mg/kg IP every three days)	tumour growth inhibition (TGI) (U87-MG; positive control, 40 mg/kg PO once daily, end of study) [%]
Nc1nc(=O)n([C@H]2C[C@H](O)[C@@H](CO)O2)cc1CO [2d5hmC, 5-hydroxymethyl-2′-deoxycytidine]	> 25	≥ 25	> 25	≥ 25	> 25	≥ 25	> 25	≥ 25	> 100	8.97	> 25	≥ 25	> 25	≥ 25	> 25	> 25	≥ 25	93	marked decrease in tumour volume	
Nc1nc(=O)n([C@H]2C[C@H](O)[C@@H](CO)O2)cc1C=O [2d5fC, 5-formyl-2′-deoxycytidine]	> 25	≥ 25	0.806	0.806	> 25	≥ 25	6.26	6.26	28.1	28.2	> 25	≥ 25	> 25	≥ 25	0.102	> 25	≥ 25	83	marked decrease in tumour volume	
Cn1nnc2c(C(N)=O)ncn2c1=O [Temozolomide, 4-methyl-5-oxo-2,3,4,6,8-pentazabicyclo[4.3.0]nona-2,7,9-triene-9-carboxamide, reference compound]	> 25		> 25		> 25		> 25		7.34	> 100	> 25		> 25		> 25	> 25				94
